Data: patent publication US6346544B2, “Desmethyl tocopherols for protecting cardiovascular tissue” (Oklahoma Medical Research Foundation, priority 2000, dated 2002)

Columns and labels:
platelets [1] = experiment: platelet aggregation in vitro (PRP, aggregometer); type: cell-based, human; details: 500 μM α-tocopherol or 50 μM γ-tocopherol, 1 H preincubation
Method: […] inhibits platelet aggregation in vitro and in vivo, apparently through antagonism of protein kinase C (PKC) (60-63). Concentrations of αT necessary to inhibit aggregation in vitro are on the order of 500 μM (60-63), or approximately 10-fold higher than achieved in vivo. The concentration difference between in vitro and in vivo efficacy has been rationalized on the basis of incomplete tocopherol incorporation into membranes during in vitro incubation (63). Nonetheless, subjects supplemented with oral αT have diminished platelet aggregation (63). We therefore sought to investigate the ability of γ-tocopherol to inhibit platelet aggregation. PRP was obtained from two volunteers. Platelets were stimulated to aggregate with ADP, thrombin receptor activating peptide (TRAP) or the PKC agonist phorbol myristyl acetate (PMA) and aggregation was measured using a 4-channel clinical aggregometer. Specific platelet samples were preincubated with vehicle, αT, γT or 5-NO2-γ-tocopherol for 1 H prior to stimulation. Tocopherol concentrations were set at 10-fold excess to average PRP levels based on the precedent of previous in vitro aggregation experiments that used αT as an inhibitor (60-63).

[2] = 100 mg/kg/day for 10 days; 29% FeCl3 patch; cited from earlier work
[3] = upper vs lowest quintile of αT consumption, 87,425 nurses, 8 years; cited from earlier work
αKGDH [4] = experiment: heart αKGDH activity after tocopherol supplementation, with or without LPS challenge; type: in vivo, rat; details: animals not subjected to LPS stress; 15 mg tocopherol I.P. over 30 days
Method: Rats were injected with 15 mg of tocopherol over the first 1 month of life; specific groups were then challenged with a septic dose of LPS and heart αKGDH activity was assayed 24 H later. *p<0.1 relative to vehicle; †p<0.05 relative to vehicle. N=5/group.
Rat pups were injected intraperitoneally (I.P.) with αT or γT in an olive oil vehicle every other day for 30 days beginning 2 days after birth; control animals received vehicle only. […] A total of 15 mg tocopherol was delivered to each animal over the 30 day period; animal weight at the end of the period was approximately 90 g for all three groups. One half of each animal group was injected with a septic dose of LPS (2.5 mg/kg, I.P). After 24 H, animals were killed and organs collected. αKGDH was assayed in heart tissue and tocopherols were measured by HPLC-ECD/PDA.

[5] = median intake 419 vs. 6.4 IU/day, 39,910 men; cited from earlier work
[6] = tested on: ECV304 human endothelial cells; details: 10 μM α-T, 10 μM γ-T or 5 μM of each; 19 hours preincubation; 5 mM SIN-1; 24 hours
Method: Cultured ECV304 human endothelial cells were exposed to SIN-1 in the presence of 10 μM α-T, 10 μM γ-T or 5 μM of each (FIG. 5). Tocopherols were incubated with the cells for 19 hours prior to addition of SIN-1. Viability was assayed 24 hours later using a standard tetrazolium (MTT) reduction assay.

[7] = chronic αT supplementation; cited from earlier work
[8] = 35,000 postmenopausal women, 7 years; supplements alone or with dietary intake; cited from earlier work
[9] = associated with a 40% increase in plasma αT; cited from earlier work
[10] = 400-800 IU/day, 18 months, cited from earlier work
[11] = 400 IU/day natural αT, 4.5 years, 9541 subjects; cited from earlier work
[12] = 50 mg/kg supplement, 5.3 years follow-up; cited from earlier work
[13] = plasma concentrations of tocopherols and 5-NO2-γ-tocopherol in volunteers; type: in vivo, human; details: mean ± SEM
Excerpt: Smoking is recognized as a major contributing factor to heart disease and γ-T reportedly decreases more than α-T in smokers. Hypertension is also a strong risk factor for heart disease. […] Seven subjects indicated a chronic hypertensive condition. As outlined in Table I, γ-tocopherol tended to decrease in hypertensive subjects while nitration products tended to increase in both smokers and hypertensive subjects. This was the trend regardless of whether the tocopherol concentrations were normalized to plasma triglycerides (Table I).

[14] = own supplementation, 100 mg/kg/day, 10 days; cited from earlier work
platelets [15] = details: cited from earlier work
αKGDH [16] = experiment: αKGDH protection against SIN-1 nitrative stress in isolated mitochondria in vitro; type: biochemical, rat; details: 400 μM SIN-1, one hour
Method: FIG. 3 is a graph showing rat brain mitochondria exposed to 0.4 mM SIN-1 for 1 H after addition of tocopherol. (•)α-tocopherol; (▪)γ-tocopherol. The scale bars labeled [α]norm and [Y]norm indicate the normal endogenous quantities of α-tocopherol and γ-tocopherol, respectively, in human brain.
αKGDH is a rate-limiting enzyme of mitochondrial energy production which is diminished in conditions of vascular ischemia (53-58); augmentation of the enzyme with α-ketoglutarate has been found beneficial and α-ketoglutarate is now included as a component in cardioplegia fluid to improve recovery after heart surgery (59). We undertook to determine whether γT protects αKGDH against nitrative stress in vitro. Mitochondria were isolated from adult rat brain then sonicated briefly in the presence of either αT or γT, or an ethanol vehicle. Mitochondria were then exposed to SIN-1, which generates NO and superoxide simultaneously at a known rate (7). Combination of NO and superoxide yields ONOO^−. in situ (discussed above).

[17] = cited from earlier work
[18] = rat, in vivo
Method: Rat pups were injected intraperitoneally (I.P.) with αT or γT in an olive oil vehicle every other day for 30 days beginning 2 days after birth; control animals received vehicle only. Olive oil was chosen as a vehicle because of the low tocopherol content in this particular vegetable oil. […] One half of each animal group was injected with a septic dose of LPS (2.5 mg/kg, I.P). After 24 H, animals were killed and organs collected. αKGDH was assayed in heart tissue and tocopherols were measured by HPLC-ECD/PDA.

Cc1c(C)c2c(c(C)c1O)CC[C@@](C)(CCC[C@H](C)CCC[C@H](C)CCCC(C)C)O2 [α-tocopherol, reference compound]
Platelet Aggregation (% maximum) (platelets [1]; ADP 20 μM, Subject 1): 85 % maximum
Platelet Aggregation (% maximum) (platelets [1]; ADP 20 μM, Subject 2): 72 % maximum
Platelet Aggregation (% maximum) (platelets [1]; PMA 200 nM, Subject 1): 74 % maximum
Platelet Aggregation (% maximum) (platelets [1]; PMA 200 nM, Subject 2): 34 % maximum
Platelet Aggregation (% maximum) (platelets [1]; TRAP 20 μM, Subject 1): 44 % maximum
Platelet Aggregation (% maximum) (platelets [1]; TRAP 20 μM, Subject 2): 75 % maximum
delay/increase of time to occlusive thrombus [2]: 25%
diminished risk of coronary disease [3]: 34%
increase of mean heart αKGDH activity (αKGDH [4]): 40%
diminished risk of CAD [5]: 39%
effect on SIN-1 toxicity (MTT viability) [6]: no apparent effect
increase of plasma levels of αT [7]: 300-400%
benefit of supplements on cardiovascular death [8]: no benefit
lower mortality rate (ischemic heart disease) [9]: 84%
reduction in nonfatal myocardial infarction ([10]; 2002 male smokers with CAD): 77%
increase in all-cause mortality [10]: 29%
effect on primary or secondary cardiovascular outcomes or death [11]: no effect
effect on MI or mortality [12]: no effect
plasma concentration ([13]; hypertensives, N = 7): 23.1 ± 12.2 μg/mL plasma
plasma concentration normalized to triglyceride ([13]; hypertensives, N = 7): 21.9 ± 5.9 μg/mg triglyceride
plasma concentration ([13]; population, N = 54): 18.3 ± 2.6 μg/mL plasma
plasma concentration normalized to triglyceride ([13]; population, N = 54): 34.2 ± 14.2 μg/mg triglyceride
plasma concentration ([13]; smokers, N = 7): 24.9 ± 9.2 μg/mL plasma
plasma concentration normalized to triglyceride ([13]; smokers, N = 7): 21.5 ± 4.5 μg/mg triglyceride
increase of plasma level above baseline [14]: 2 fold
concentration necessary to inhibit aggregation in vitro (platelets [15]): ~500 µM
concentration offering as much αKGDH protection as 50-100 nM γT (αKGDH [16]): 1 to 10 µM
tocopherol concentration of maximal αKGDH protection (αKGDH [16]; rat brain mitochondria): 1 µM
increase of plasma αT ([17]; 50 IU/day supplementation): 50%
effect on death from hemorrhagic stroke ([17]; 50 IU/day, 5-8 years): increases death from hemorrhagic stroke
effect on total mortality of smokers ([17]; 50 IU/day, 5-8 years): does not decrease total mortality
heart tissue tocopherol concentration, controls [18]: 23±12 ng/mg protein
